Earlier results as cited in patent publication US20080021016A1, “Combined Pharmaceutical Composition for the Inhibition of the Decline of Cognitive Functions” (priority 2004, published 2008).

Key:
[1] = 1 and 10 mg/kg after oral administration
[2] = single 0.7 mg/kg oral treatment
[3] = single oral dose of 3 mg/kg sc.
[4] = 10 and 30 mg/kg after oral treatment
central 5-HT2C receptors = molecular target: T1, central 5-HT2C receptors (Homo sapiens, UniProt P28335)
T1 sequence (P28335 33-458): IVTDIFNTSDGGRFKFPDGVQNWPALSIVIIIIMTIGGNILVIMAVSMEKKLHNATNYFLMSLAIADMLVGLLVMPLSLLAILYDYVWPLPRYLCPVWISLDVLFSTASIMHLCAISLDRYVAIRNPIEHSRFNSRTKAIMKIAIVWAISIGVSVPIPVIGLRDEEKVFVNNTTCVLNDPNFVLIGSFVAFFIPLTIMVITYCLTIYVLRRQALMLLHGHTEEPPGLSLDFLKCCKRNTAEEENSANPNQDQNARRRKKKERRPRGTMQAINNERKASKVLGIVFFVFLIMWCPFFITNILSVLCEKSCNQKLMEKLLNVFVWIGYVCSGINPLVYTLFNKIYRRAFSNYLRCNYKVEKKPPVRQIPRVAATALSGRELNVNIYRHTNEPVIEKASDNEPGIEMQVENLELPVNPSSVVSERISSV

central 5-HT2A receptors = central 5-HT2A receptors (Homo sapiens, UniProt P28223)
central 5-HT2A receptors, sequence (P28223 whole entry): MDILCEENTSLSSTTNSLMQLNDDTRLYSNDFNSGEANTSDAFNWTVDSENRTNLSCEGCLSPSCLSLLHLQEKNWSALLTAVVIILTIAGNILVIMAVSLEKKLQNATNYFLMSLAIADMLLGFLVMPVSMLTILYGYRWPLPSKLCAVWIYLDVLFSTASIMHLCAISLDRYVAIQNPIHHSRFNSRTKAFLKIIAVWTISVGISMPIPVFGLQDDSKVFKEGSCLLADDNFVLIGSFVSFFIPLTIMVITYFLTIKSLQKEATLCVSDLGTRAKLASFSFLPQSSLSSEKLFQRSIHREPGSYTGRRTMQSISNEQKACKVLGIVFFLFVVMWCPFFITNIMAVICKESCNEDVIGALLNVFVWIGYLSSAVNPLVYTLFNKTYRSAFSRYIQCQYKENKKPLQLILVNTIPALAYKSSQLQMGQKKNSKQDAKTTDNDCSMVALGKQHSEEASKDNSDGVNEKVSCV

(1R,2S,4R)-(-)-2-[N,N-(dimethylaminoethoxy)]-2-phenyl-1,7,7-trimethylbicyclo[2.2.1]heptane [deramciclane]
activity in the Vogel punished drinking test [1]: active | time spent with social interactions [2]: increased the time spent with social interactions | activity in the light-dark model [3]: active | activity in the marble burying model [4]: active | binding to central 5-HT2C receptors (central 5-HT2C receptors): significantly bound | binding to central 5-HT2A receptors (central 5-HT2A receptors): significantly bound
